Results from patent publication US10919844B2, “Antibacterials and/or modulators of biofilm formation and methods of using the same” (Indiana University Research and Technology Corporation, priority 2015, dated 2021).
“Also recorded” adds a separate entry of the source.

Columns and labels:
[1] = system: Pseudomonas aeruginosa; experiment: P. aeruginosa biofilm formation assay (K357 biofilm assay, crystal violet OD readout); assay type: cell-based; details: for activity in the Biofilm Assay: FIG. 23; for activity of purified sample in the biofilm assay: FIGS. 26-28; for activity in preliminary screens: FIG. 1, compounds in red
Description: A straightforward biological assay was developed to provide for the study these important bacterial biofilm communities. This assay also provided an efficient means for screening for compounds that have an effect on bacterial growth and/or biofilm formation.
The racemic amino acid derivatives 1 (synthesized in row A of each Bill-Board) are then screened for biological activity (antibacterial activity in a Kirby-Bauer disc plate assay) and/or K357 laboratory (assay for biofilm formation by Pseudomonas aeruginosa).
Referring now to FIG. 3, reproducible P. aeruginosa Biofilm Assays were carried out using newly synthesized twenty-one “unnatural” amino acids. See George A. O'Toole, Microtiter Dish Biofilm Formation Assay, J. VIS EXP. 2011; (47): 2437, disclosures of which are incorporated by reference in its entirety to the extent that they are not inconsistent with the explicit teachings of this specification.
Referring to FIGS. 34-35, all newly synthesized compounds prepared according to the schemes described above were assayed for biofilm formation in multiplicate 24 well plates at a screening dose of 20 μg/mL using crystal violet optical density (OD) readings as the readout. Results were expressed as % biofilm formation relative to a control (control=bacteria alone=100% biofilm formation). The procedure for the biofilm assay was the same as that used by students in the K357 biofilm laboratory.
Referring now to FIGS. 36-38, all compounds assayed in either 96 well or 24 well plates at a screening dose of either 20 or 40 μg/mL, using a biofilm assay with crystal violet optical density (OD) readings as the readout. Results were expressed as % biofilm formation (control=bacteria alone=100% biofilm formation). The procedure for the biofilm assay was the same as that used by students in the K357 biofilm laboratory.

[2] = water-solubility noted during extractive work-up; assay type: physicochemical; details: basic aqueous phase, extraction with dichloromethane

Row | water-solubility [2] | Structure (SMILES) | activity in the Biofilm Assay [1] | potency in modulating/inhibiting biofilm formation (SAR studies) [1] | activity of purified sample in the biofilm assay [1] | activity in preliminary screens [1] | activity of un-purified samples in the K357 biofilm assay [1] | potency in the biofilm assay compared with tobramycin ([1]; FIG. 24, comparator tobramycin)
1 |  | NC(Cc1ccc(F)c(F)c1)C(=O)O (stereo not shown) [3,4-F2, 2-Amino-3-(3,4-difluorophenyl)propanoic acid] | showed activity | potent activity | active in a dose dependent manner |  |  | 
2 |  | NC(=O)C(N)Cc1ccc(F)cc1 (stereo not shown) [4-fluorophenylalanine amide, 2-Amino-3-(4-fluorophenyl)propanamide] |  | very potent inhibitor |  |  |  | 
3 |  | NC(Cc1ccccc1F)C(=O)O (stereo not shown) [Compound 2-F, 2-Amino-3-(2-fluorophenyl)propanoic acid] | showed activity | potent activity | active in a dose dependent manner | showed activity | active | 
4 |  | NC(Cc1cccc(F)c1)C(=O)O (stereo not shown) [Compound 3-F, 2-Amino-3-(3-fluorophenyl)propanoic acid] | showed activity | potent activity | active in a dose dependent manner | showed activity |  | 
5 |  | NC(Cc1ccc(F)cc1)C(=O)O (stereo not shown) [Compound 4-F, 2-Amino-3-(4-fluorophenyl)propanoic acid] | showed activity | potent activity | active in a dose dependent manner; also recorded: confirmed this activity | showed activity | active | as potent as tobramycin
6 |  | N[C@@H](Cc1ccc(I)cc1)C(=O)O [Compound 4-I] |  |  |  | showed activity |  | 
7 | Appreciable water-solubility | NC(Cc1ccc(F)cc1)C(=O)NCCN1CCOCC1 (stereo not shown) [Compound 5n, 2-Amino-3-(4-fluorophenyl)-N-(2-morpholinoethyl)propanamide] |  |  |  |  |  | 
8 | Appreciable water-solubility | NC(Cc1ccc(F)cc1)C(=O)N1CCCC1 (stereo not shown) [Compound 5p, 2-Amino-3-(4-fluorophenyl)-1-(pyrrolidin-1-yl)propan-1-one] |  |  |  |  |  | 
